Values joined by “and” are separate entries in the source; they are usually repeats but may differ in a detail not shown here. Equal values may be shown once.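 Results reflect a 48-hour exposure of cells in 96-well plates to compound at five concentrations. The concentration for 50% growth inhibition is given as GI50. TGI is the concentration that stops growth completely.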

Holding throughout (test): NCI tumour cell line growth inhibition, 48 h
Experiment [1] relates to DMS 114 small cell lung.
For experiment [2], the system named is XF 498 CNS.
Experiment [3] has as its system DLD-1 colon.
The subject of experiment [4] is LXFL 529 NSCLC.
Experiment [5] relates to RXF-631 renal.
The test system of experiment [6] is NCI/ADR-RES ovarian.
Experiment [7] relates to MDA-N.
Experiment [8] relates to DU-145 prostate.
In experiment [9] the test system is T-47D breast.
The test system of experiment [10] is P388/ADR leukemia.
In experiment [11] the test system is SN12K1 renal.
Experiment [12] concerns P388 leukemia.

For `NC(=O)C1C(=O)Oc2cccnc21` (centres undefined), the TGI in [1], in experiment [2] and in experiment [3] was greater than 100 µM in each case.
For `O=C(NCCOC(=O)CCCCCCCCC(=O)OCCNC(=O)NC(=O)c1cn(Cc2ccccc2)c(=O)[nH]c1=O)NC(=O)c1cn(Cc2ccccc2)c(=O)[nH]c1=O`, the TGI in experiment [4], in [1], in experiment [2] and in experiment [3] was greater than 100 µM throughout.
Turning to `CN(C)CCC(/C=C/c1ccccc1)=N\Nc1c(F)c(F)c(F)c(F)c1F`, the TGI in experiment [4], in experiment [1] and in experiment [3] was greater than 100 µM in each case.
`O=C(Cn1ccnc1[N+](=O)[O-])NCc1ccc(F)cc1`: the TGI in experiment [4], in experiment [1], in [5] and in experiment [2] was greater than 100 µM throughout.
Turning to `O=C(CC/C(CC(=O)c1ccc(Cl)cc1)=N\O)Nc1cccc(Cl)c1`, the TGI in experiment [4], in [1], in experiment [2] and in [3] was greater than 100 µM each time.
As to `CC(=O)O[C@H]1C(=O)[C@@]2(C)C([C@H](OC(=O)c3ccccc3)[C@]3(O)C[C@H](OC(=O)[C@H](O)[C@@H](NC(=O)c4ccc(Cl)cc4)c4ccccc4)C(C)=C1C3(C)C)C1(OC(C)=O)CO[C@@H]1C[C@@H]2O` (some centres undefined), the TGI in [4] turned out to be 57.2 µM; in [6], 25 µM; in [7], 0.0195 µM; in [2] it was 3.73 µM; in experiment [8], 0.452 µM; in experiment [9] it was 25 µM. The compound also had a TGI in experiment [3] greater than 100 µM.
For the compound `COc1cc([C@H]2c3cc4c(cc3[C@H](NCc3ccc(F)cc3)C3COC(=O)[C@H]32)OCO4)cc(OC)c1O` (some centres undefined), the TGI in [4] was greater than 100 µM; in [1] it was 18.7 µM; in experiment [5], 14.3 µM; in experiment [2] it was 9.67 µM; in experiment [3] it was greater than 100 µM.
On to `Cc1cc2nc3c(C(OC4OC(CO)C(O)C(O)C4O)C(O)CO)nn(-c4ccc(F)cc4)c3nc2cc1C` (centres undefined), for which the TGI in experiment [4], in [1], in [5], in experiment [2] and in experiment [3] was greater than 100 µM throughout.
For `COc1ccc(S(=O)(=O)NNS(C)(=O)=O)cc1OC`, the TGI in experiment [4], in [2] and in experiment [3] was greater than 100 µM in each case.
On to `Cc1ccc(/C=C2\CCCC(C(NO)c3ccc(C)cc3)C2=NO)cc1` (centres undefined), for which the TGI in experiment [4] was greater than 100 µM; in [1], greater than 100 µM; in experiment [5], 93.5 µM; in [2], greater than 100 µM; in [3], greater than 100 µM.
Regarding `Cc1ccc(-n2cc(/C(N)=N/O)c3ccccc3c2=O)cc1`, the TGI in experiment [4], in experiment [1] and in experiment [2] was greater than 100 µM each time.
`CC1(O)CC2C(CC1SCc1ccccc1)C2(C)C` (centres undefined): the GI50 in [4] is 38.6 µM and 14.8 µM; in experiment [3] it was 42.4 µM and 16.6 µM. Besides, the TGI in experiment [4] is > 100 µM and 28.1 µM; in experiment [1], 33.1 µM; in experiment [2], 32.9 µM and 37.4 µM; in experiment [3] it was > 100 µM and 30.2 µM.
As for `C=C(/C=C/C=C(\CO)CCC=C(C)C)[C@H]1CCC2([C@H](CCCO)/C(=C(/C)C=O)CC[C@]2(C)O)[C@H]1O` (some centres undefined), the TGI in experiment [4], in experiment [1], in [2] and in [3] was greater than 100 µM throughout.
In the case of `Cc1cccc(NC(=O)CSc2nnc(-c3ccc(N=Cc4ccc(Cl)cc4)cc3)o2)c1`, the TGI in [4], in experiment [1] and in experiment [2] was greater than 100 µM throughout.
Regarding `O=C(/C=N/O)Nc1cccc(Cl)c1I`, the TGI in experiment [4] was greater than 100 µM; in [1], 79.2 µM; in [2], greater than 100 µM; in [3] it was greater than 100 µM.
Take `Clc1ccc(/C=C/c2csnn2)cc1`: the TGI in [4], in experiment [1], in experiment [2] and in experiment [3] was greater than 100 µM throughout.
Take `Nc1nc2c(ncn2C2OC(CO)C(O)C2O)c(=O)[nH]1` (centres undefined): the TGI in experiment [1] was 214 µM; in experiment [10], 80.3 µM; in experiment [6], > 100 µM and 238 µM; in experiment [11], 259 µM; in [12], 44.5 µM; in [9], greater than 100 µM. In experiment [3], the TGI worked out at 142 µM. Also, the GI50 in [6] and in experiment [9] was greater than 100 µM in each case.
`Cc1nc(Nc2ccc(Cl)c(Cl)c2)sc1C(/C=C/c1ccc2c(c1)OCO2)=N/Nc1ccc([N+](=O)[O-])cc1[N+](=O)[O-]`: the TGI in [4] is greater than 100 µM; in [1] it was greater than 100 µM; in experiment [6] it was greater than 100 µM; in [7], greater than 100 µM; in experiment [2] it was greater than 48.8 µM; in experiment [8], greater than 100 µM. Besides, the TGI in experiment [9] and in experiment [3] was greater than 100 µM in each case.
`O=C(O)c1cc2ccc(Cl)cc2c(O)c1C1=CCCCC1`: the TGI is greater than 100 µM in experiment [4]; 63.6 µM in [1]; greater than 100 µM in [5]; 51 µM in experiment [2]; greater than 100 µM in [3].
On to `CNC(=O)N(CCCCC(NC(C)=O)C(=O)NCc1ccccc1)Cc1ccccc1` (centres undefined), for which the TGI in experiment [4], in experiment [1], in experiment [5], in experiment [2] and in [3] was greater than 100 µM throughout.
Consider `c1ccc2c(c1)n1nnnc1c1nnnn21`, for which the TGI in experiment [4], in experiment [1], in experiment [5], in experiment [2] and in experiment [3] was greater than 100 µM in each case.
On to `Cc1cc(N(CCC#N)CCC#N)ccc1/C=C1N=C(/C=C\c2ccccc2)N(c2ccc(C(=O)O)cc2)C\1=O`, for which the TGI in experiment [4], in [1], in [5] and in experiment [3] was greater than 100 µM each time.
As to `O=C(N[C@H]1CC2(C=C(I)C(=O)C(I)=C2)OC1=O)OCc1ccccc1`, the TGI is 30.2 µM in experiment [4]; 39.3 µM in experiment [1]; 30.8 µM in experiment [5]; 26.8 µM in experiment [2]; 32.8 µM in [3].
For the compound `CCCC/C=C1/CCC(CN(C)C)C1=O` (centres undefined), the TGI in [4] amounted to 1.36 µM; in experiment [1], 3.92 µM; in [10], 0.396 µM; in [6], 15 µM; in [5], 3.27 µM; in experiment [11] it was 1.9 µM. The TGI turned out to be 5.2 µM in [7]; 0.366 µM in experiment [12]; 28.9 µM in [8]; 2.64 µM in experiment [9]; 2.16 µM in experiment [3].
Regarding `O=S1(=O)CS(=O)(=O)OCCCCCO1`, the TGI in [4], in [1], in [5] and in experiment [3] was greater than 100 µM each time.
Turning to `COc1ccc(C2C(C(=O)O)=C(COC(C)=O)Oc3cc4c(cc32)OCO4)c(OC)c1` (centres undefined), the TGI in [1], in experiment [5], in experiment [2] and in experiment [3] was greater than 100 µM in each case.
With `Nc1cccc(C(=O)/C=C/c2ccccc2O)c1`, the TGI in experiment [4], in experiment [1], in [2] and in experiment [3] was greater than 100 µM in each case.
Turning to `O=C1Cc2c([nH]c3ccccc23)-c2cc(Br)ccc2N1`, the TGI in [4], in [1], in experiment [5] and in experiment [3] was greater than 100 µM in each case.
For `O=C(Nc1c(Cl)cc([N+](=O)[O-])cc1Cl)C(=O)C(C(=O)c1ccncc1)C1OC(=O)c2ccccc21` (centres undefined), the TGI in experiment [4], in experiment [1], in experiment [5], in experiment [2] and in experiment [3] was greater than 100 µM throughout.
With `Cc1c(C(=O)/C=C/c2ccc3c(c2)OCO3)[n+](=O)c2ccccc2n1[O-]`, the TGI in experiment [4] was 61.9 µM; in [1], 48.8 µM; in experiment [5] it was greater than 100 µM; in [2], 92.8 µM; in [3], greater than 100 µM.
In the case of `CCOC(=O)c1cnc2c(ccc3ncccc32)c1OCC`, the TGI in [4], in experiment [1], in experiment [5] and in [3] was greater than 100 µM in each case.
On to `NC(=O)N1N=C2c3ccccc3OC[C@H]2[C@@H]1c1ccccc1`, for which the TGI in experiment [4] was greater than 100 µM; in experiment [1], 34.2 µM; in experiment [2] it was greater than 100 µM; in experiment [3], greater than 100 µM.
For `COc1cc2ccc(CC(=O)O)cc2cc1OC`, the TGI in [4], in [1], in [5] and in [3] was greater than 100 µM throughout.
As to `CCOc1ccc(N=Nc2c(-c3ccccc3)nn(C(=O)CC(=O)Nc3ccccc3Cl)c2-c2ccccc2)cc1`, the TGI in experiment [4], in experiment [1], in experiment [2] and in [3] was greater than 100 µM in each case.
Turning to `COc1ccc(C2NC(c3ccc(OC)cc3)C(C)C(=O)C2C)cc1` (centres undefined), the TGI in experiment [4], in [1], in experiment [5] and in experiment [3] was greater than 100 µM in each case.
Regarding `COC(=O)C1C(=O)NC2(C)CC1c1ccccc1O2` (centres undefined), the TGI in [4], in experiment [1], in experiment [2] and in experiment [3] was greater than 100 µM in each case.

(Values after PubChem BioAssay (NCI).)
